Consider 41 compounds from patent publication US11666577B2 (National Institute of Biological Sciences, Beijing, priority 2018, dated 2023).

This assay has as its system HT-29 cells. Put plainly: Necroptosis assay (TNF-α/Smac mimetic/z-VAD, TSZ-induced) in HT-29 cells. Format: cell-based, human. As to the method: Methods: HT-29 cells were cultured in McCoy's 5 A culture medium (Invitrogen). On day one, HT-29 cells were plated in 96-well assay plates at density of 2,500-3,500 cells per well. On day two, necrosis were induced by adding 20 ng/ml TNF-α (T), 100 nM Smac mimetic (S), and […] z-VAD (Z). At the same time, 10 mM compound from a chemical library of ˜200,000 compounds was delivered into each well. After 24 hrs treatment, cell viability was determined by measuring ATP level using the Cell Titer-Glo Luminescent Cell Viability Assay kit. A CellTiter-Glo Assay (Promega) was performed according to the manufacturer's instructions. Luminescence was recorded with a PerkinElmer EnSpire Multimode Plate Reader. Survived cells were normalized to those cells treated with DMSO. RIPA-56 was used as a positive control for screening necroptosis inhibitors. Data are represented as mean±standard deviation of duplicates.
In previous work, we performed a cell-based high-throughput screen to identify necroptosis inhibitors using a chemical library of ˜200,000 compounds and identified multiple compounds that protected human colorectal adenocarcinoma (HT-29) cells from TNF-α/Smac mimetic/Z-VAD-fmk (TSZ)-induced necroptosis.^[4]
The anti-necroptosis potency of compounds 7-12 and 14-18 was evaluated in the HT-29 cell line; the EC50 values are shown in Table B.
[a] Necroptosis was induced in HT-29 cells for 24 h; the EC50 values given here are the mean values of at least three independent analyses.

The mark [1] stands for this setting: Series 1 (Table 1) compounds 147-176, activity extrapolated, read-out: Series 1 compound necroptosis activity (extrapolated).
Setting [2] is: Homo sapiens, Series 2 (Table 2) compounds, HT-29 necroptosis assay, read-out: Series 2 compound necroptosis activity.
Setting [3] is: Series 1 (Table 1) compounds 1-146, HT-29 cells, TNF-α/Smac mimetic/z-VAD, 24 hrs, cell viability by ATP level, read-out: Series 1 compound necroptosis activity.
[4] abbreviates: Homo sapiens, Series 1 (Table 1) compounds 1-146, HT-29 cells, TNF-α/Smac mimetic/z-VAD, 24 hrs, cell viability by ATP level, read-out: Series 1 compound necroptosis activity.

Like-named read-outs stand apart in the source and are kept apart here.

With `CNCCS(=O)(=O)c1nc2c(c(=O)n(C)c(=O)n2CC#Cc2cccc(O)c2)n1C` [Compound 151], the EC50 under setting [1] is 1 to 1000 µM.

For the compound `Cn1c(=O)c2c(nc(S(C)(=O)=O)n2C)n(CC#Cc2cc(N)cc(NC(=O)C3CC3)c2)c1=O` [Compound 40], the EC50 under setting [2] lay within 0.001 to 0.1 µM.

For `Cn1c(S(C)(=O)=O)nc2c1c(=O)[nH]c(=O)n2C` [Compound 88, 3,7-dimethyl-8-(methylsulfonyl)-1H-purine-2,6(3H,7H)-dione], the EC50 under setting [3] was 1 to 1000 µM.

Take `CCOc1ccc(OC)cc1CS(=O)(=O)c1nc2c(c(=O)n(C)c(=O)n2C)n1C` [Compound 65, 8-(2-ethoxy-5-methoxybenzylsulfonyl)-1,3,7-trimethyl-1H-purine-2,6(3H,7H)-dione]: the EC50 under setting [3] was in the range of 1 to 1000 µM.

As to `Cn1c(=O)c2c(nc(S(C)(=O)=O)n2C)n(CC#Cc2cc(N)cc(Br)c2)c1=O` [Compound 168], the EC50 under setting [1] is 1 to 1000 µM.

Turning to `CC[S+]([O-])c1nc2c(c(=O)n(C)c(=O)n2C)n1C` (centres unmarked) [Compound 6, 8-(ethylsulfinyl)-1,3,7-trimethyl-1H-purine-2,6(3H,7H)-dione], under setting [3], the EC50 fell in the range of 1 to 1000 µM.

Consider `Cn1c(=O)c2c(nc(S(=O)(=O)CC3CC3)n2C)n(CC#Cc2cccc([N+](=O)[O-])c2)c1=O` [Compound 125, 8-((cyclopropylmethyl)sulfonyl)-1,7-dimethyl-3-(3-(3-nitrophenyl)prop-2-yn-1-yl)-3,7-dihydro-1H-purine-2,6-dione], for which the EC50 (Series 1 (Table 1) compounds, HT-29 cells, TNF-α/Smac mimetic/z-VAD, 24 hrs, cell viability by ATP level, read-out: Series 1 compound necroptosis activity) lay in the range of 0.001 to 1 µM.

For the compound `CCC[S+]([O-])c1nc2c(c(=O)n(C)c(=O)n2C)n1CC` (centres unmarked) [Compound 79, 7-ethyl-1,3-dimethyl-8-(propylsulfinyl)-1H-purine-2,6(3H,7H)-dione], the EC50 under setting [3] lay in the range of 1 to 1000 µM.

Consider `Cn1c(=O)c2c(nc(S(=O)(=O)CC3CC3)n2C)n(Cc2ccc(Br)cc2)c1=O` [Compound 141, 3-(4-bromobenzyl)-8-((cyclopropylmethyl)sulfonyl)-1,7-dimethyl-1H-purine-2,6(3H,7H)-dione], for which the EC50 under setting [4] was in the range of 1 to 100 µM.

Turning to `Cn1c(=O)c2c(nc3n2CCS3(=O)=O)n(CC#Cc2cccc(O)c2)c1=O` [Compound 148], under setting [1], the EC50 was 1 to 1000 µM.

In the case of `Cn1c(=O)c2c(nc(S(=O)(=O)Cc3cccc[n+]3[O-])n2C)n(C)c1=O` [Compound 49, 2-((1,3,7-trimethyl-2,6-dioxo-2,3,6,7-tetrahydro-1H-purin-8-ylsulfonyl)methyl)pyridine 1-oxide], under setting [3], the EC50 lay in the range of 1 to 1000 µM.

On to `Cn1c(=O)c2c(nc(S(C)(=O)=O)n2C)n(CC#Cc2ccc3c(c2)NCCC3)c1=O` [Compound 170], for which the EC50 under setting [1] was 1 to 1000 µM.

Consider `CCCn1c(S(C)(=O)=O)nc2c1c(=O)n(C)c(=O)n2C` [Compound 83, 1,3-dimethyl-8-(methylsulfonyl)-7-propyl-1H-purine-2,6(3H,7H)-dione], for which, under setting [3], the EC50 was in the range of 1 to 1000 µM.

`CN(C)S(=O)(=O)c1nc2c(c(=O)n(C)c(=O)n2CC#Cc2cccc(O)c2)n1C` [Compound 158]: the EC50 under setting [1] is 1 to 1000 µM.

With `Cc1c2c(=O)n(C)c(=O)n(C)c2nn1S(C)(=O)=O` [Compound 145, 3,5,7-trimethyl-2-(methylsulfonyl)-2H-pyrazolo[3,4-d]pyrimidine-4,6(5H,7H)-dione], the EC50 under setting [3] lay within 1 to 1000 µM.

Regarding `Cn1c(=O)c2c(nc(S(C)(=O)=O)n2C)n(CC#Cc2ccc(=O)[nH]c2)c1=O` [Compound 165], the EC50 under setting [1] was 1 to 1000 µM.

As for `Cn1c(=O)c2c(nc(S(=O)(=O)CCc3ccccc3)n2C)n(C)c1=O` [Compound 22, 1,3,7-trimethyl-8-(phenethylsulfonyl)-1H-purine-2,6(3H,7H)-dione], the EC50 under setting [3] lay within 1 to 1000 µM.

As to `CCSc1nc2c(c(=O)n(C)c(=O)n2C)n1CC` [Compound 75, 7-ethyl-8-(ethylthio)-1,3-dimethyl-1H-purine-2,6(3H,7H)-dione], the EC50 under setting [3] lay in the range of 1 to 1000 µM.

As to `Cn1c(=O)c2c(nc(S(=O)(=O)CC3CC3)n2C)n(Cc2ccncc2)c1=O` [Compound 144, 8-((cyclopropylmethyl)sulfonyl)-1,7-dimethyl-3-(pyridin-4-ylmethyl)-1H-purine-2,6(3H,7H)-dione], the EC50 under setting [3] lay within 1 to 1000 µM.

Take `CSc1nc2c(c(=O)n(C)c(=O)n2C)n1CC(N)=O` [Compound 85, 2-(1,3-dimethyl-8-(methylthio)-2,6-dioxo-2,3-dihydro-1H-purin-7(6H)-yl)acetamide]: the EC50 under setting [3] lay within 1 to 1000 µM.

Take `COc1cc(CS(=O)(=O)c2nc3c(c(=O)n(C)c(=O)n3C)n2C)c(OC)cc1Cl` [Compound 70, 8-(4-chloro-2,5-dimethoxybenzylsulfonyl)-1,3,7-trimethyl-1H-purine-2,6(3H,7H)-dione]: the EC50 under setting [3] is 1 to 1000 µM.

As for `Cn1c(=O)c2c(nc(S(=O)(=O)Cc3ccc(Br)cc3)n2C)n(C)c1=O` [Compound 34, 8-(4-bromobenzylsulfonyl)-1,3,7-trimethyl-1H-purine-2,6(3H,7H)-dione], the EC50 under setting [3] was 1 to 1000 µM.

In the case of `Cn1c(=O)c2c(nc(S(=O)(=O)CC3CC3)n2C)n(Cc2cccc(Cl)c2)c1=O` [Compound 137, 3-(3-chlorobenzyl)-8-((cyclopropylmethyl)sulfonyl)-1,7-dimethyl-1H-purine-2,6(3H,7H)-dione], the EC50 under setting [4] is 1 to 100 µM.

In the case of `Cn1c(=O)c2c(nc(S(C)(=O)=O)n2C)n(CC#Cc2cc(NC(=O)C3CC3)nc(C(F)(F)F)c2)c1=O` [Compound 43], the EC50 under setting [2] was 0.001 to 0.1 µM.

Regarding `COc1cccc(OC)c1CS(=O)(=O)c1nc2c(c(=O)n(C)c(=O)n2C)n1C` [Compound 62, 8-(2,6-dimethoxybenzylsulfonyl)-1,3,7-trimethyl-1H-purine-2,6(3H,7H)-dione], the EC50 under setting [3] lay in the range of 1 to 1000 µM.

For `CN(C)CCS(=O)(=O)c1nc2c(c(=O)n(C)c(=O)n2CC#Cc2cccc(O)c2)n1C` [Compound 152], the EC50 under setting [1] was 1 to 1000 µM.

For the compound `CCCCCNc1cccc(C#CCn2c(=O)n(C)c(=O)c3c2nc(S(C)(=O)=O)n3C)c1` [Compound 16], the EC50 under setting [2] lay within 0.1 to 10 µM.

As for `Cn1c(=O)c2c(nc(S(=O)(=O)CC3CC3)n2C)n(Cc2cccc(F)c2)c1=O` [Compound 134, 8-((cyclopropylmethyl)sulfonyl)-3-(3-fluorobenzyl)-1,7-dimethyl-1H-purine-2,6(3H,7H)-dione], under setting [4], the EC50 is 1 to 100 µM.

On to `Cn1c(=O)c2c(nc(S(=O)(=O)NCc3ccccc3)n2C)n(C)c1=O` [Compound 55], for which the EC50 under setting [2] lay within 10 to 100 µM.

Consider `Cn1c(=O)c2c(nc3n2CCS3(=O)=O)n(CC#Cc2cccc(NCCN3CCOCC3)c2)c1=O` [Compound 67], for which the EC50 under setting [2] lay in the range of 0.001 to 0.1 µM.

Turning to `Cn1c(=O)c2c(nc(S(C)(=O)=O)n2C)n(CC#Cc2ccc3c(c2)NCC3)c1=O` [Compound 171], the EC50 under setting [1] was 1 to 1000 µM.

Regarding `CCCn1c(=O)n(C)c(=O)c2c1nc(S(C)(=O)=O)n2C` [Compound 101, 1,7-dimethyl-8-(methylsulfonyl)-3-propyl-1H-purine-2,6(3H,7H)-dione], under setting [4], the EC50 is 1 to 100 µM.

Take `Cn1c(=O)c2c(nc([S+](C)[O-])n2C)n(CC#Cc2cc(NC(=O)C3CC3)nc(C(F)(F)F)c2)c1=O` (centres unmarked) [Compound 48]: the EC50 under setting [2] is 0.1 to 10 µM.

With `COc1ccc(OC)c(Cn2c(=O)n(C)c(=O)c3c2nc(S(=O)(=O)Cc2cc(OC)ccc2OC)n3C)c1` [Compound 129, 3-(2,5-dimethoxybenzyl)-8-(2,5-dimethoxybenzylsulfonyl)-1,7-dimethyl-1H-purine-2,6(3H,7H)-dione], the EC50 under setting [4] lay in the range of 1 to 100 µM.

For the compound `Cn1c(S(C)(=O)=O)nc2c1c(=O)n(-c1ccccc1)c(=O)n2C` [Compound 92, 3,7-dimethyl-8-(methylsulfonyl)-1-phenyl-1H-purine-2,6(3H,7H)-dione], under setting [3], the EC50 lay within 1 to 1000 µM.

`Cn1c(=O)c2c(nc(S(=O)(=O)CC3CC3)n2C)n(Cc2ccc(F)cc2)c1=O` [Compound 135, 8-((cyclopropylmethyl)sulfonyl)-3-(4-fluorobenzyl)-1,7-dimethyl-1H-purine-2,6(3H,7H)-dione]: the EC50 under setting [4] was in the range of 1 to 100 µM.

Regarding `C=CC(=O)Nc1cccc(C#CCn2c(=O)n(C)c(=O)c3c2nc(S(=O)(=O)CCO)n3C)c1` [Compound 159], the EC50 under setting [1] was 1 to 1000 µM.

In the case of `Cn1c(=O)c2c(nc(S(C)(=O)=O)n2C)n(CC#CC2CCCNC2)c1=O` (centres unmarked) [Compound 167], the EC50 under setting [1] is 1 to 1000 µM.

Regarding `Cn1c(=O)c2c(nc(S(=O)(=O)Cc3cc[n+]([O-])cc3)n2C)n(C)c1=O` [Compound 53, 4-((1,3,7-trimethyl-2,6-dioxo-2,3,6,7-tetrahydro-1H-purin-8-ylsulfonyl)methyl)pyridine 1-oxide], the EC50 under setting [3] lay within 1 to 1000 µM.

For `Cn1c(=O)c2c(nc(S(=O)(=O)Cc3cccc(F)c3)n2C)n(C)c1=O` [Compound 27, 8-(3-fluorobenzylsulfonyl)-1,3,7-trimethyl-1H-purine-2,6(3H,7H)-dione], under setting [3], the EC50 was in the range of 1 to 1000 µM.

For `COc1ccccc1CS(=O)(=O)c1nc2c(c(=O)n(C)c(=O)n2C)n1C` [Compound 35, 8-(2-methoxybenzylsulfonyl)-1,3,7-trimethyl-1H-purine-2,6(3H,7H)-dione], under setting [3], the EC50 lay within 1 to 1000 µM.
